According to patent US7943628B2, “Pyrimidine derivatives” (Pfizer Limited, priority 2005, dated 2011):

molecular target: T1, histamine H4 receptor (Homo sapiens, UniProt Q9H3N8); assay: H4 binding, method 1 ([3H]-histamine filtration binding on CHO cell membranes); details: 1.5 h
T1 construct: expressed in transfected cells; host or cells: CHO cells
In short: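 Membranes from CHO cells expressing human H4 receptor (20-35 μg/well) incubated 90 min at room temperature with 3 nM [3H]-histamine in 50 mM Tris-HCl pH 7.4, ± competitor. Bound label separated by filtration on PEI-soaked GF/B filters and counted by scintillation; non-specific binding with 10 μM JNJ7777120.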

inhibition at 20 µM | Structure (SMILES)
85% | CCCNc1cc(N2CCCC(NC)C2)nc(N)n1 (stereo not shown) [Example 323, 6-[3-(Methylamino)piperidin-1-yl]-N^4-propylpyrimidine-2,4-diamine]
91% | CNC1CCCN(c2cc(NCC3CC3)nc(N)n2)C1 (stereo not shown) [Example 294, N^4-(Cyclopropylmethyl)-6-[3-(methylamino)piperidin-1-yl]pyrimidine-2,4-diamine]
55% | CCNc1cc(N2CCCC(NC)C2)nc(N)n1 (stereo not shown) [Example 324, N^4-Ethyl-6-[3-(methylamino)piperidin-1-yl]pyrimidine-2,4-diamine]
57% | Nc1nc(NCC2CC2)cc(N2CC(N3CCOCC3)C2)n1 [Example 322, N^4-(Cyclopropylmethyl)-6-(3-morpholin-4-ylazetidin-1-yl)pyrimidine-2,4-diamine]

same assay, conditions: H4 binding, method 1; Ki calculated from IC50 (Cheng-Prussoff)

Ki | Structure (SMILES)
3300 nM | CN1CC[C@H](Nc2cc(NCCC(C)(C)C)ncn2)C1 [Example 296, N-(3,3-Dimethylbutyl)-N′-[(3S)-1-methylpyrrolidin-3-yl]pyrimidine-4,6-diamine]
28.7 nM | CC(C)(C)CNc1cc(N2CC(N3CCCC3)C2)ncn1 [Example 192, N-(2,2-Dimethylpropyl)-6-(3-pyrrolidin-1-ylazetidin-1-yl)pyrimidin-4-amine]
49.3 nM | CN[C@H]1CCN(c2cc(NCCC(C)(C)C)nc(N)n2)C1 [Example 211, N^4-(3,3-Dimethylbutyl)-6-[(3S)-3-(methylamino)pyrrolidin-1-yl]pyrimidine-2,4-diamine]
101 nM | CN1CCCN(c2cc(NC3CC3)ncn2)CC1 [Example 224, N-Cyclopropyl-6-(4-methyl-1,4-diazepan-1-yl)pyrimidin-4-amine]
839 nM | Nc1nc(NC2CC2)cc(N2CCC(N)CC2)n1 [Example 269, 6-(4-Aminopiperidin-1-yl)-N^4-cyclopropylpyrimidine-2,4-diamine]
43.3 nM | CN[C@H]1CCN(c2cc(NC(C)(C)C)nc(N)n2)C1 [Example 207, N^4-(tert-Butyl)-6-[(3S)-3-(methylamino)pyrrolidin-1-yl]pyrimidine-2,4-diamine]
939 nM | CC(C)(C)CCNc1cc(N[C@@H]2CCNC2)ncn1 [Example 7, N-(3.3-Dimethylbutyl)-N′-[(3R)-pyrrolidin-3-yl]pyrimidine-4,6-diamine]
266 nM | CN[C@@H]1CCN(c2cc(NCC3CCC3)nc(N)n2)C1 [Example 243, N^4-(Cyclobutylmethyl)-6-[(3R)-3-(methylamino)pyrrolidin-1-yl]pyrimidine-2,4-diamine]
950 nM | CN[C@@H]1CCN(c2cc(NCc3cc(F)cc(F)c3)nc(N)n2)C1 [Example 273, N^4-(3,5-Difluorobenzyl)-6-[(3R)-3-(methylamino)pyrrolidin-1-yl]pyrimidine-2,4-diamine]
501 nM | CN[C@@H]1CCN(c2cc(NC3CC3)nc(N)n2)C1 [Example 256, N^4-Cyclopropyl-6-[(3R)-3-(methylamino)pyrrolidin-1-yl]pyrimidine-2,4-diamine]
13.9 nM | CCCNc1cc(N2CC(N)C2)nc(N)n1 [Example 232, 6-(3-Aminoazetidin-1-yl)-N^4-propylpyrimidine-2,4-diamine]
0.653 nM | CC(C)CNc1cc(N2CCCNCC2)nc(N)n1 [Example 133, 6-(1,4-Diazepan-1-yl)-N^4-isobutylpyrimidine-2,4-diamine]
5.2 nM | CN[C@@H]1CCN(c2cc(NC3(C)CC3)nc(N)n2)C1 [Example 149, 6-[(3R)-3-(Methylamino)pyrrolidin-1-yl]-N^4-(1-methylcyclopropyl)pyrimidine-2,4-diamine]
12.1 nM | CCNc1cc(N2CCC(N)CC2)nc(N)n1 [Example 139, 6-(4-Aminopiperidin-1-yl)-N^4-ethylpyrimidine-2,4-diamine]
1430 nM | CC(C)(C)CCNc1cc(N2CCCNCC2)ncn1 [Example 280, 6-(1,4-Diazepan-1-yl)-N-(3,3-dimethylbutyl)pyrimidin-4-amine]
12.3 nM | CCNc1cc(N2CCCNCC2)nc(N)n1 [Example 175, 6-(1,4-Diazepan-1-yl)-N^4-ethylpyrimidine-2,4-diamine]
33.1 nM | CNC1(C)CN(c2cc(NCC3CC3)nc(N)n2)C1 [Example 196, N^4-(Cyclopropylmethyl)-6-[3-methyl-3-(methylamino)azetidin-1-yl]pyrimidine-2,4-diamine]

Ki | Structure (SMILES)
2.65 nM | CNC1CN(c2cc(N[C@H](C)C(C)C)nc(N)n2)C1 [Example 160, N^4-[(1R)-1,2-Dimethylpropyl]-6-[3-(methylamino)azetidin-1-yl]pyrimidine-2,4-diamine]
2590 nM | CC(C)(C)CCNc1cc(N2CCC(N)C2)ncn1 (stereo not shown) [Example 292, 6-(3-Aminopyrrolidin-1-yl)-N-(3,3-dimethylbutyl)pyrimidin-4-amine]
1.07 nM | CNC1CN(c2cc(NC3CCC3)nc(N)n2)C1 [Example 75, N^4-Cyclobutyl-6-[3-(methylamino)azetidin-1-yl]pyrimidine-2,4-diamine]
7.21 nM | Nc1nc(NCC2CC2)cc(N2CC(N3CCCC3)C2)n1 [Example 136, N^4-(Cyclopropylmethyl)-6-(3-pyrrolidin-1-ylazetidin-1-yl)pyrimidine-2,4-diamine]
1260 nM | CNC1CCCN(c2cc(NCC(C)C)nc(N)n2)C1 (stereo not shown) [Example 278, N^4-Isobutyl-6-[3-(methylamino)piperidin-1-yl]pyrimidine-2,4-diamine]
0.791 nM | CCCCNc1cc(N2CC(NC)C2)nc(N)n1 [Example 132, N^4-Butyl-6-[3-(methylamino)azetidin-1-yl]pyrimidine-2,4-diamine]
205 nM | CNC1CN(c2cc(N3CC(F)(F)C3)nc(N)n2)C1 [Example 236, 4-(3,3-Difluoroazetidin-1-yl)-6-[3-(methylamino)azetidin-1-yl]pyrimidin-2-amine]
57.3 nM | CN1CCN(c2cc(NCCC(C)(C)C)nc(N)n2)CC1 [Example 102, N^4-(3,3-Dimethylbutyl)-6-(4-methylpiperazin-1-yl)pyrimidine-2,4-diamine]
57.3 nM | Nc1nc(NCC2CC2)cc(N2CC[C@@H](N)C2)n1 [Example 215, 6-[(3R)-3-Aminopyrrolidin-1-yl]-N^4-(cyclopropylmethyl)pyrimidine-2,4-diamine]
329 nM | CNc1cc(N2CC(C)(NC)C2)nc(N)n1 [Example 248, N^4-Methyl-6-[3-methyl-3-(methylamino)azetidin-1-yl]pyrimidine-2,4-diamine]
2.49 nM | CNC1CN(c2cc(NCc3ccc(F)cc3F)nc(N)n2)C1 [Example 157, N^4-(2,4-Difluorobenzyl)-6-[3-(methylamino)azetidin-1-yl]pyrimidine-2,4-diamine]
5.8 nM | CN[C@@H]1CCN(c2cc(NC34CC(C3)C4)nc(N)n2)C1 [Example 138, N^4-Bicyclo[1.1.1]pent-1-yl-6-[(3R)-3-(methylamino)pyrrolidin-1-yl]pyrimidine-2,4-diamine]
20.5 nM | CCNc1cc(N2CCCN(C)CC2)nc(N)n1 [Example 185, N^4-Ethyl-6-(4-methyl-1,4-diazepan-1-yl)pyrimidine-2,4-diamine]
12.1 nM | CCCNc1cc(N2CC(C)(NC)C2)nc(N)n1 [Example 140, 6-[3-Methyl-3-(methylamino)azetidin-1-yl]-N^4-propylpyrimidine-2,4-diamine]
705 nM | CCNc1cc(N2CCC(C)(N)C2)nc(N)n1 (stereo not shown) [Example 265, 6-(3-Amino-3-methylpyrrolidin-1-yl)-N^4-ethylpyrimidine-2,4-diamine]
452 nM | Nc1nc(NCc2cccc(F)c2F)cc(N2CC[C@@H](N)C2)n1 [Example 255, 6-[(3R)-3-Aminopyrrolidin-1-yl]-N^4-(2,3-difluorobenzyl)pyrimidine-2,4-diamine]
593 nM | CN1CC[C@@H](Nc2cc(NCCC(C)(C)C)ncn2)C1 [Example 8, N-(3,3-Dimethylbutyl)-N′-[(3R)-1-methylpyrrolidin-3-yl]pyrimidine-4,6-diamine]

Structure (SMILES) | Ki
CC(C)Nc1cc(N2C[C@@H]3CCCN[C@@H]3C2)nc(N)n1 [Example 169, N^4-Isopropyl-6-[(4aS,7aS)-octahydro-6H-pyrrolo[3,4-b]pyridin-6-yl]pyrimidine-2,4-diamine] | 6.77 nM
CC(C)CNc1cc(N2CCN(C)CC2)ncn1 [Example 105, N-Isobutyl-6-(4-methylpiperazin-1-yl)pyrimidin-4-amine] | 68.8 nM
CN1CCN(c2cc(NCC3CC3)ncn2)CC1 [Example 106, N-(Cyclopropylmethyl)-6-(4-methylpiperazin-1-yl)pyrimidin-4-amine] | 66.1 nM
Nc1nc(NC2CCC2)cc(N2C[C@H]3CCCN[C@H]3C2)n1 [Example 230, N^4-Cyclobutyl-6-[(4aR,7aR)-octahydro-6H-pyrrolo[3,4-b]pyridin-6-yl]pyrimidine-2,4-diamine] | 127 nM
Nc1nc(NC2CC2)cc(N2CCC3NCCC3C2)n1 (stereo not drawn) [Example 172, N^4-Cycopropyl-6-[(3aR*,7aS*)-octahydro-5H-pyrrolo[3,2-c]pyridin-5-yl]pyrimidine-2,4-diamine] | 9.3 nM

same assay, conditions: at 10 μM

Method 1, % at 10 μM | Structure (SMILES)
26% at 10 μM | CN[C@H]1[C@@H]2CN(c3cc(NCCC(C)(C)C)nc(N)n3)C[C@@H]21 [Example 309, N^4-(3,3-Dimethylbutyl)-6-[(1R,5S,6s)-6-(methylamino)-3-azabicyclo[3.1.0]hex-3-yl]pyrimidine-2,4-diamine]

same assay, conditions: top dose 10 μM

Method 1, activity at top dose (10 μM) | Structure (SMILES)
No activity at top | c1nc(NCC2CC2)cc(N2CCN(C3CNC3)CC2)n1 [Example 308, 6-(4-Azetidin-3-ylpiperazin-1-yl)-N-(cyclopropylmethyl)pyrimidin-4-amine]
No activity at top | Cn1ccnc1CN1CCN(c2cc(NCCC(C)(C)C)ncn2)CC1 [Example 299, N-(3,3-Dimethylbutyl)-6-{4-[(1-methyl-1H-imidazol-2-yl)methyl]piperazin-1-yl}pyrimidin-4-amine]
